Laboratory results as given in patent US12551482B2, “Aurora kinase inhibitors” (The Regents of the University of California, priority 2013, dated 2026).
Like-named read-outs stand apart in the source and are kept apart here.

Columns and labels:
Assay in all cases: Cancer cell line profiling, Genomics of Drug Sensitivity Project
WM35 = conditions: WM35, read-out: CD532 EC50 (uM)
IGR-1 = conditions: Homo sapiens, IGR-1, read-out: CD532 EC50 (uM)
AGS = conditions: Homo sapiens, read-out: CD532 EC50 (uM)
SNU-1 = conditions: Homo sapiens, SNU1, read-out: CD532 EC50 (uM)
NCI-N87 = conditions: Homo sapiens, NCI-N87, read-out: CD532 EC50 (uM)
MKN1 = conditions: Homo sapiens, MKN-1, read-out: CD532 EC50 (uM)
SCH = conditions: read-out: CD532 EC50 (uM)
BICR 10 = conditions: read-out: CD532 EC50 (uM)
DOK = conditions: read-out: CD532 EC50 (uM)
HO-1-u-1 = conditions: read-out: CD532 EC50 (uM)
SAT = conditions: read-out: CD532 EC50 (uM)
OSC-19 = conditions: OSC19, read-out: CD532 EC50 (uM)
NH-12 = conditions: read-out: CD532 EC50 (uM)
huH-1 = conditions: Homo sapiens, HuH-1, read-out: CD532 EC50 (uM)
GAK = conditions: read-out: CD532 EC50 (uM)
GT3TKB = conditions: read-out: CD532 EC50 (uM)
HT-144 = conditions: Homo sapiens, HT-144, read-out: CD532 EC50 (uM)
K5 = conditions: read-out: CD532 EC50 (uM)
KP-N-YS = conditions: read-out: CD532 EC50 (uM)
LB2518-MEL = tested on: LB2518-MEL
LB771-HNC = conditions: read-out: CD532 EC50 (uM)
LB996-RCC = conditions: read-out: CD532 EC50 (uM)
LOXIMVI = tested on: LOXIMVI
MMAC-SF = conditions: read-out: CD532 EC50 (uM)
MZ7-mel = tested on: MZ7-mel
NB10 = conditions: read-out: CD532 EC50 (uM)
SH-4 = conditions: Homo sapiens, SH-4, read-out: CD532 EC50 (uM)
KLE = conditions: Homo sapiens, read-out: CD532 EC50 (uM)
RF-48 = conditions: RF48, read-out: CD532 EC50 (uM)
SK-MEL-5 = tested on: SK-MEL-5
EFO-21 = conditions: Homo sapiens, EFO-21, read-out: CD532 EC50 (uM)
OVMIU = conditions: read-out: CD532 EC50 (uM)
HPAC = conditions: Homo sapiens, read-out: CD532 EC50 (uM)
YAPC = conditions: Homo sapiens, read-out: CD532 EC50 (uM)

## O=C(Nc1ccc(Nc2nccc(Nc3cc(C4CCCC4)[nH]n3)n2)cc1)Nc1cccc(C(F)(F)F)c1 [CD532, 1-(4-((4-((5-cyclopentyl-1H-pyrazol-3-yl)amino)pyrimidin-2-yl)amino)phenyl)-3-(3-(trifluoromethyl)phenyl)urea]
WM35
  EC50: 0.367 µM
IGR-1
  EC50: 0.27 µM
AGS
  EC50: 0.346 µM
SNU-1
  EC50: 0.158 µM
NCI-N87
  EC50: 10.9 µM
MKN1
  EC50: 0.86 µM
SCH
  EC50: 1.24 µM
BICR 10
  EC50: 4.27 µM
DOK
  EC50: 0.512 µM
HO-1-u-1
  EC50: 9.81 µM
SAT
  EC50: 1.19 µM
OSC-19
  EC50: 1.18 µM
NH-12
  EC50: 0.37 µM
huH-1
  EC50: 1.38 µM
GAK
  EC50: 0.823 µM
GT3TKB
  EC50: 1.05 µM
HT-144
  EC50: 0.366 µM
K5
  EC50: 1.33 µM
KP-N-YS
  EC50: 0.27 µM
LB2518-MEL; read-out: CD532 EC50 (uM), LB2518-MEL cell line, Skin
  EC50: 0.847 µM
LB2518-MEL; read-out: CD532 EC50, LB2518-MEL cell line, Skin
  EC50: 0.709 µM
LB771-HNC
  EC50: 0.916 µM
LB996-RCC
  EC50: 2.08 µM
LOXIMVI; Homo sapiens, LOX IMVI, read-out: CD532 EC50 (uM), LOXIMVI cell line, Skin
  EC50: 0.732 µM
LOXIMVI; read-out: CD532 EC50, LOXIMVI cell line, Skin
  EC50: 0.384 µM
MMAC-SF
  EC50: 0.566 µM
MZ7-mel; read-out: CD532 EC50 (uM), MZ7-mel cell line, Skin
  EC50: 0.73 µM
MZ7-mel; read-out: CD532 EC50, MZ7-mel cell line, Skin
  EC50: 0.556 µM
NB10
  EC50: 0.275 µM
SH-4
  EC50: 0.783 µM
KLE
  EC50: 2.99 µM
RF-48
  EC50: 0.903 µM
SK-MEL-5; Homo sapiens, SK-MEL-5, read-out: CD532 EC50 (uM), SK-MEL-5 cell line, Skin
  EC50: 0.525 µM
SK-MEL-5; read-out: CD532 EC50, SK-MEL-5 cell line, Skin
  EC50: 0.366 µM
EFO-21
  EC50: 1.87 µM
OVMIU
  EC50: 0.869 µM
HPAC
  EC50: 2.5 µM
YAPC
  EC50: 5.34 µM
